Where a SMILES comes first, the peptide text is derived from it. [ ]: non-standard residue; d: D form. The star is where a group is joined. Phe(4-Br) = N[C@@H](Cc1ccc(Br)cc1)C(=O)O; Palmitoyl = CCCCCCCCCCCCCCCC(=O)*; NMeL = CN[C@@H](CC(C)C)C(=O)O; Nle = CCCC[C@H](N)C(=O)O; Aib = CC(C)(N)C(=O)O
Experiments:
[1] = molecular target: T1, recombinant human APJ-Ga16 receptor (Homo sapiens, UniProt P35414); experiment: Ca2+ mobilization assay (FLIPR, Chem-5-APJ cells); format: cell-based; details: among peptides 56-59
T1 construct: host or cells: Chem-5-APJ cells
T1 sequence (P35414 1-380): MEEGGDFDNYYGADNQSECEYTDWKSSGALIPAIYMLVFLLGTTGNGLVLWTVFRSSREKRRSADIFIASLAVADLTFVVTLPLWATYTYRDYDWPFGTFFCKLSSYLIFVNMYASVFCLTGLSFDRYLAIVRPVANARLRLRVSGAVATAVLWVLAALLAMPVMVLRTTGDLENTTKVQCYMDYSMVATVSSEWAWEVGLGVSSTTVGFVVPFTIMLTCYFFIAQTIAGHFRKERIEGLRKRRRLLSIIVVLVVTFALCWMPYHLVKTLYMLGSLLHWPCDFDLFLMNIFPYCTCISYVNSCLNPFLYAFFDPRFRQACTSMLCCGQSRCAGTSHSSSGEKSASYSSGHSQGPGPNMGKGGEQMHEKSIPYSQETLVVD
Method: To study the extent to which the newly derived peptides trigger APJ-receptor activation, a fluorescence coupled calcium release assay including a recombinant human APJ-Ga16 receptor cell line was used.
Chem-5-APJ cells (Millipore, USA) were seeded (30 000 cells/well) into Nunclon Delta Surface 96-well, clear-bottom microtitre plates (Thermo Scientific, Denmark) 24 hours prior to assay. Cells were loaded for 1 hour with FLIPR Calcium 6-QF fluorescent indicator dye (Molecular Devices, USA) in assay buffer [Hanks balanced salt solution (HBSS), 20 mM HEPES, 0.2% DMSO, 2.5 mM probenecid, pH 7.6], washed three times with assay buffer, then returned to the incubator for 10 min before assay on a fluorimetric imaging plate reader (FLIPR; Molecular Devices, Sunnyvale, Calif., USA). Maximum change in fluorescence over baseline was used to determine agonist response. Dose—response curve data were fitted to a four-parameter logistic equation using PRISM (Graph Pad, USA) from which pEC50 values were calculated. FIGS. 14A-G show the concentration response curves of apelin peptides.

anesthetized mice = experiment: Blood pressure assay in anesthetized mice; format: in vivo; details: 1.4 μM/kg body weight injected
Outline: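 Mice were anaesthetized with 1.5% isoflurane/oxygen and kept at 36 °C. Peptide (1.4 μM/kg body weight) or saline was injected via the right jugular vein. Arterial pressure and heart rate were recorded continuously through a catheter in the aorta via the right carotid artery over 60 min and reported as SBP, DBP, MABP and HR.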

CCCCCCCCCCCCCCCC(=O)N[C@@H](CCCCN)C(=O)N[C@@H](Cc1ccccc1)C(=O)N[C@@H](CCCNC(=N)N)C(=O)N[C@@H](CCCNC(=N)N)C(=O)N[C@@H](CCC(N)=O)C(=O)N[C@@H](CCCNC(=N)N)C(=O)N1CCC[C@H]1C(=O)N[C@@H](CCCNC(=N)N)C(=O)N(C)[C@@H](CC(C)C)C(=O)N[C@@H](CO)C(=O)N[C@@H](Cc1c[nH]cn1)C(=O)N[C@@H](CCCCN)C(=O)NCC(=O)N1CCC[C@H]1C(=O)N[C@@H](CCCC)C(=O)NC(C)(C)C(=O)N[C@@H](Cc1ccc(Br)cc1)C(=O)O [Peptide 58] (Palmitoyl-KFRRQRPR[NMeL]SHKGP[Nle][Aib][Phe(4-Br)]-OH; C-terminus assumed)
Ca2+ mobilization (in words) [1]: lowest Ca^2+ mobilization | effect on heart rate (HR) (anesthetized mice): heart rate increasing effect is restored
